Tests used:
human FDPS = experiment: Functional assay for FDPS mRNA reduction (quantitative RT-PCR); type: cell-based; details: HepG2 cells, 48 hours after transduction, mRNA normalized to actin; FIG. 4A
Experimental: (§1) Vector Construction: For FDPS shRNA, oligonucleotide sequences containing BamHI and EcoRI restriction sites were synthesized by MWG operon. Oligonucleotide sequences were annealed by incubation at 70 degrees Celsius and cooling to room temperature. Annealed oligonucleotides were digested with the restriction enzymes BamHI and EcoRI for one hour at 37 degrees Celsius and then the enzymes were heat-inactivated at 70 degrees Celsius for 20 minutes. In parallel, the lentiviral vector was digested with the restriction enzymes BamHI and EcoRI for one hour at 37 degrees Celsius. […] The DNA concentration was determined and the vector to oligo sequence was ligated in the ratio 3:1 insert to vector. […] Cells were collected after 2-4 days and protein and RNA was analyzed for FDPS expression.
Functional Assay for mRNA Reduction: The effect of different FDPS short homology RNA (shRNA) targeting sequences on FDPS expression was determined by measuring mRNA expression. […] The samples were then analyzed by quantitative RT-PCR using an Applied Biosystems StepOne PCR machine. FDPS expression was detected with SYBR Green from Invitrogen using the forward primer (5′-[…]-3′) (SEQ ID NO: 59) and reverse primer (5′-[…]-3′) (SEQ ID NO: 60) with standard conditions for polymerase chain reaction analysis. […] The relative expression of FDPS was determined by its Ct value normalized to the level of actin for each sample.

FDPS = FDPS immunoblot in HepG2 cells infected with lentiviral vectors; type: cell-based, human; details: 48 hours, FIG. 4B
Experimental: HepG2 human hepatocellular carcinoma cells were infected with lentiviral vectors containing either the H1 promoter and a FDPS shRNA (SEQ ID NO: 4) sequence or the EF-1alpha promoter and the following miR30-based FDPS sequences:
After 48 hours, cells were lysed and an immunoblot was performed using an anti-FDPS (Thermo Scientific) and an anti-actin (Sigma) antibody for a protein loading control. […] Treatment with the miR30-based FDPS sequences decreased FDPS expression.

human cMyc = experiment: cMyc mRNA expression in HepG2 cells (quantitative PCR); type: cell-based; details: 48 hours after transduction, mRNA normalized to actin, FIG. 8A
Experimental: as §1, with “cMyc” for “FDPS”
Functional Assay: The effect of different cMyc shRNA targeting sequences on cMyc expression was determined by measuring mRNA expression. […] The samples were then analyzed by quantitative PCR using an Applied Biosystems StepOne PCR machine. cMyc expression was detected with SYBR Green from Invitrogen using the forward primer (5′-GGACTATCCTGCTGCCAA-3′) (SEQ ID NO: 69) and reverse primer (5′-GCCTCTTGACATTCTCCTC-3′) (SEQ ID NO: 64). […] The relative expression of cMyc was determined by its Ct value normalized to the level of actin for each sample.

human CD47 = experiment: CD47 mRNA expression in Hep3B cells (quantitative RT-PCR); type: cell-based; details: 48 hours after transduction, mRNA normalized to actin, FIG. 7A
Experimental: Functional Assay: The effect of different CD47 shRNA targeting sequences on CD47 expression was determined by measuring mRNA expression. Hep3B hepatocellular carcinoma cells were transduced with a lentiviral vector containing CD47 shRNA sequences. After 48 hours, cells were lysed and RNA was extracted using the RNeasy mini kit from Qiagen. cDNA was then synthesized from RNA using SuperScript VILO from Invitrogen. The samples were then analyzed by quantitative RT-PCR using an Applied Biosystems StepOne PCR machine. CD47 expression was detected with SYBR Green from Invitrogen using the forward primer (5′-[…]-3′) (SEQ ID NO: 63) and reverse primer (5′-GCCTCTTGACATTCTCCTC-3′) (SEQ ID NO: 64). The samples were normalized by measuring actin expression using the forward primer (5′-AGCGCGGCTACAGCTTCA-3′) (SEQ ID NO: 61) and reverse primer (5′-[…]-3′) (SEQ ID NO: 65). The relative expression of CD47 was determined by its Ct value normalized to the level of actin for each sample.

cMyc = cMyc immunoblot in SNU449 cells infected with lentiviral vectors; type: cell-based, human; details: 48 hours, FIG. 8B
Experimental: After 48 hours, cells were lysed and an immunoblot was performed using an anti-cMyc (Santa Cruz) and an anti-actin (Sigma) antibody for a protein loading control.

PC3 tumors = experiment: PC3 tumor growth in NOD/SCID mice, transduced cells with or without zoledronic acid; type: in vivo; details: single dose of zoledronic acid
Experimental: Protocol overview for co-administration of LV-shRNA-FDPS (farnesyl diphosphate synthase) with or without zoledronic acid in mice implanted with human prostate cancer cell line PC3. Tumor cells were cultured in vitro, then transduced with lentivirus vector control with a scrambled sequence (nonfunctional) shRNA insert and an expression cassette for firefly luciferase, or LV-FDPS with a shRNA capable of reducing expression of FDPS mRNA and an expression cassette for firefly luciferase. The transduced tumor cells were implanted on the flank of immune deficient mice by subcutaneous injection. Once tumors reached approximately 200 mm^3 volume, all mice receive a single dose of zoledronic acid (100 micrograms per kilogram body weight, which is similar to a standard human dose) in saline. 7 days after zoledronic acid injection, an imaging study was repeated to measure volume and photon intensity of individual tumors.
Day—4: Material Preparation and Delivery. Prepare lenti-vector control and lenti-shRNA-FDPS transduced PC3 cells. • 1. […]
Effects of LV-shRNA-FDPS with or without zoledronic acid on PC3 tumor growth in NOD/SCID mice. […] A bioluminescence imaging study on Day 8 determined the average tumor sizes prior to zoledronic acid treatment (FIG. 10A). The photon intensity for tumors was measured with a CCD light capture system.

**Q.** For “FDPS-4: FDPS shRNA, SEQ ID NO: 4; used with H1 promoter in FIG. 4B (DNA GCAGAAGGAGGCTGAGAAAGTCTCGAGACTTTCTCAGCCTCCTTCTGCTTTTT)”, which “relative expression level of human FDPS” value (human FDPS) is on record?
**A.** most significant inhibition

**Q.** What about the FDPS protein expression (FDPS) of the same compound?
**A.** significantly decreased

**Q.** How did the “relative expression level of human cMyc” value (human cMyc) turn out when “cMyc shRNA Sequence 2: cMyc shRNA, SEQ ID NO: 11 (DNA GCGAACACACAACGTCTTGGACTCGAGTCCAAGACGTTGTGTGTTCGCTTTT)” was run?
**A.** most significant inhibition

**Q.** How did the “relative expression level of human CD47” value (human CD47) turn out when “CD47 sequence 1: CD47 shRNA, SEQ ID NO: 5 (DNA GGTGAAACGATCATCGAGCCTCGAGGCTCGATGATCGTTTCACCTTTTT)” was run?
**A.** most significant inhibition

**Q.** “cMyc shRNA Sequence 4: cMyc shRNA, SEQ ID NO: 13; used in FIG. 8B (GAGAATGTCAAGAGGCGAACACTCGAGTGTTCGCCTCTTGACATTCTCTTTTT)” was tested. Which cMyc protein expression (cMyc) did it give?
**A.** significantly decreased

**Q.** How did the “relative expression level of human CD47” value (human CD47) turn out when “CD47 sequence 3: CD47 shRNA, SEQ ID NO: 7 (DNA CCTCCTTCGTCATTGCCATCTCGAGATGGCAATGACGAAGGAGGTTTTT)” was run?
**A.** most significant inhibition

**Q.** How did the toxicity in mice (PC3 tumors) turn out when `O=P(O)(O)C(O)(Cn1ccnc1)P(=O)(O)O` [zoledronic acid] was run?
**A.** not toxic

**Q.** “FDPS-2: FDPS shRNA, SEQ ID NO: 2 (DNA GCAGGATTTCGTTCAGCACTTCTCGAGAAGTGCTGAACGAAATCCTGCTTTTT)” was tested. Which “relative expression level of human FDPS” value (human FDPS) did it give?
**A.** most significant inhibition

From patent US12359203B2, “Combination vectors and methods for treating cancer” (American Gene Technologies International Inc., priority 2016, dated 2025)
